Reference: patent US10894803B2, “Multi-functionalized polysaccharide compounds and use thereof for targeting the cation-independent mannose 6-phosphate receptor” (NANOMEDSYN, priority 2015, dated 2021)
Like-named read-outs stand apart in the source and are kept apart here.

Key:
CI-M6PR = CI-M6PR (Homo sapiens (Human), UniProt P11717); test: Competitive binding of M6P analogs to biotinylated CI-M6PR on adsorbed pentamannose 6-phosphate (PMP); details: for Relative affinity: relative to M6C-Ethyl-NH2 taken as reference = 1
Sequence of CI-M6PR (P11717 41-2491): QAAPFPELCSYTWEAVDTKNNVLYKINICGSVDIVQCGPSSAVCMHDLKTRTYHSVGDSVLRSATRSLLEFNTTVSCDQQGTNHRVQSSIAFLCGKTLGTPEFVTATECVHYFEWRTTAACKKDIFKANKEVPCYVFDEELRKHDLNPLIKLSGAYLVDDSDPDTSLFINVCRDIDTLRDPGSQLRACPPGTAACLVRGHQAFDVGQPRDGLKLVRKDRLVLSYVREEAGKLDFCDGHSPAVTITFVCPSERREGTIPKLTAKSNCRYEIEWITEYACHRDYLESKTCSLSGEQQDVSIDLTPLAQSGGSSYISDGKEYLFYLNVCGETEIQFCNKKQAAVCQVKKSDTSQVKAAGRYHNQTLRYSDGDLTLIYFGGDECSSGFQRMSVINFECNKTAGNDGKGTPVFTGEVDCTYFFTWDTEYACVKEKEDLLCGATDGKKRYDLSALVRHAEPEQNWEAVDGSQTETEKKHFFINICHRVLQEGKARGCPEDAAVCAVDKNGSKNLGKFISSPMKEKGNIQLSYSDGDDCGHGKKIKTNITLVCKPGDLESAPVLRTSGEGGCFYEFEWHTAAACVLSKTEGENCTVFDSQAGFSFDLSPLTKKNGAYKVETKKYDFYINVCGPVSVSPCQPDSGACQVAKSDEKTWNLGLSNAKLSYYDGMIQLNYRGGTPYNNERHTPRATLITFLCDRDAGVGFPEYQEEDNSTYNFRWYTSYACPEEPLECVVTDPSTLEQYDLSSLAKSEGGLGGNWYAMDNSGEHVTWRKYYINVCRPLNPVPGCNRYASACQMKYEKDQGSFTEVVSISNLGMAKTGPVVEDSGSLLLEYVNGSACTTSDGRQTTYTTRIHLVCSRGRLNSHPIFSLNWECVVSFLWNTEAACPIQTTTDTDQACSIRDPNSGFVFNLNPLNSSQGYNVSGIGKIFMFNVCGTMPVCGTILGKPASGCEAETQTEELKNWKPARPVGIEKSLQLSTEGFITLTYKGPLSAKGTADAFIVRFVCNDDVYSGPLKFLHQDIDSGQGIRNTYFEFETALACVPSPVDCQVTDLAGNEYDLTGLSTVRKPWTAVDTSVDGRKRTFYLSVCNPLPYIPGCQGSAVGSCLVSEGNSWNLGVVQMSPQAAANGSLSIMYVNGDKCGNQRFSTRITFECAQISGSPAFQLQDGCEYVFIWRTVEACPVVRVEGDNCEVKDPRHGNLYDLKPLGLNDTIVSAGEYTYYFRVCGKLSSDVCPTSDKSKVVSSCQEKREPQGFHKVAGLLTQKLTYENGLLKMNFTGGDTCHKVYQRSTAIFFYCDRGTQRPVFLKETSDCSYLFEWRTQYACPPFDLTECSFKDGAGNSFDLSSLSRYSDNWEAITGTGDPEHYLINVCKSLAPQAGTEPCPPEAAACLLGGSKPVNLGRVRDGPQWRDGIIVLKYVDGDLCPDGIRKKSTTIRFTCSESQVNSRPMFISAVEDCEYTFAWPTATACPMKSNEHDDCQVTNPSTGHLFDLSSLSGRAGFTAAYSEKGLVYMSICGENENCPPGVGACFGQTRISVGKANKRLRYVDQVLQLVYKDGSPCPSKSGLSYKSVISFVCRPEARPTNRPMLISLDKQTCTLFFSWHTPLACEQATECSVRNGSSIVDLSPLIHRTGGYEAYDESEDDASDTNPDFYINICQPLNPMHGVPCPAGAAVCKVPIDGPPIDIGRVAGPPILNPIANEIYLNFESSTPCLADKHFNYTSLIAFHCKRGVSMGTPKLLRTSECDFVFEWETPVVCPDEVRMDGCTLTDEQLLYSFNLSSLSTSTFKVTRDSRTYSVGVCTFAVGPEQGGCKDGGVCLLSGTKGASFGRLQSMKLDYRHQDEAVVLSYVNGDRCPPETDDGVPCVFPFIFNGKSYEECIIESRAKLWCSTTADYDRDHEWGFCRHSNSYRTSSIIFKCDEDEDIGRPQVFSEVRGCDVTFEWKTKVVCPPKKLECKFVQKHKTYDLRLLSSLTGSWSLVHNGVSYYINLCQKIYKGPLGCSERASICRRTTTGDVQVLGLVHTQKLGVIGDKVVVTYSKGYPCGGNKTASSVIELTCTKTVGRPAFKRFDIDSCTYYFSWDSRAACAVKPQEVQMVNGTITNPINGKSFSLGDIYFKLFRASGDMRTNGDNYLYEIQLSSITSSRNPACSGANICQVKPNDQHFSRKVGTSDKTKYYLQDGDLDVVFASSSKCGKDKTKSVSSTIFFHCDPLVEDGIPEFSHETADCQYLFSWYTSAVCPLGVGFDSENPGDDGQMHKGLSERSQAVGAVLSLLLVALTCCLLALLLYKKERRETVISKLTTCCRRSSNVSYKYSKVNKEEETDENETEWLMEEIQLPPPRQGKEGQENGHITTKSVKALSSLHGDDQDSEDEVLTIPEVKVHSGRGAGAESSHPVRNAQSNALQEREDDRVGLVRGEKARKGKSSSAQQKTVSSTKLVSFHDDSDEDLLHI
Protocol: 96-Well plates (Maxisorp Nunc) are incubated overnight at 4° C. with 200 μl of PMP (pentamannose 6-phosphate) at the concentration of 200 μg·ml^−1, in carbonate buffer (NaHCO3/Na2CO3 at 0.1M, pH 9.6). The following day, the solution containing the residual PMP is discarded and the wells are saturated, for 1 h at ambient temperature, with 360 μl of 1% gelatin (Type A from Porcine Skin) diluted in PBS (1.9 mM NaH2PO4, 8.1 mM Na2PO4 and 154 mM NaCl, pH 7.4). The wells are then rinsed five times with PBS to which 0.2% gelatin has been added. All the washes and also the dilutions are carried out in the solution of PBS to which 0.2% gelatin has been added. The M6P analogs to be tested at the various concentrations (from 10^−2 to 10^−7 M) are pre-incubated in the presence of pre-biotinylated CI-M6PR (M6PRb) ([…]) for 20 min, then 200 μl of the mixture are incubated in the wells for 2 h, at ambient temperature. After three washes, the wells are incubated for 1 h with a streptavidin-peroxidase solution (250 μl per well; 3.10^−8 M). After three more washes, 200 μl of a solution of OPD (o-phenylenediamine, 1 mg·ml^−1 in citrate buffer, pH 5.0, and 1 μl 30% H2O2.ml^−1; Sigma Aldrich) are added. After incubation for 20 min in the dark at ambient temperature, the optical densities are measured at the wavelength of 450 nm.
The conjugate of formula (III) is evaluated for its affinity with CI-M6PR. The binding affinity of rhGAA and of the rhGAA-M6Pn-α(1,2)-Man-Ethyloxyamino conjugate (28) was evaluated by means of a competitive binding technique with CI-M6PR described in example 2 and compared with the affinity of M6P.

[1] = tested on: myoblasts of patients suffering from the adult form of Pomp disease; test: Internalization: GAA catalytic activity (4-MUG substrate) in cell extracts of treated myoblasts; type: cell-based, human; details: 50 nM, 48 h incubation; compared with rhGAA
Protocol: The myoblast-type cells originating from an adult patient suffering from Pomp disease are maintained in primary culture.
The catalytic activity of GAA is measured in the cell extracts using the synthetic substrate 4-methylumbelliferyl-α-D-glucopyranoside (4-MUG). This substrate and the molecular weight standards are obtained from Sigma. The GAA activity in the cell extracts (20 μl) is measured in a reaction volume of 75 μl containing 50 mM citric acid, 115 mM K2HPO4, 110 mM KCl, 10 mM NaCl, pH 5.0, with 6 mM 4-MUG, for 10 min at ambient temperature. The reaction is stopped with 75 μl of 0.1 M Tris HCl, pH 8. The fluorescence is read with an excitation filter at 355 nm and an emission filter at 460 nm in 96-well plates, and compared to a standard curve obtained with 4-methylumbelliferone. The catalytic activity is expressed per mg of protein. Mean±standard deviation.

[2] = tested on: myoblasts from an adult patient suffering from Pomp disease; test: Cellular maturation of internalized GAA by Western blot; type: cell-based, human; details: 50 nM, 48 h incubation, healthy subject myoblasts = 100%
Protocol: The myoblasts are incubated for 48 h in the presence of 50 nM rhGAA or of the rhGAA-M6Pn-α(1,2)-Man-Ethyloxyamino conjugate (28) (conjugate of formula (III)), then lysed and the proteins are extracted. The cellular maturation of the internalized GAA enzyme in the myoblasts of patients suffering from Pomp disease is studied by the SDS polyacrylamide gel separation technique, followed by immunodetection of the GAA by Western blot with an anti-human GAA antibody (anti-LYAG, Genetex) or an anti-human actin antibody (Invitrogen). […] This experiment is representative among two experiments. The thick arrow in FIG. 4 indicates the intermediate form of GAA. The black arrow indicates the mature form of GAA (60-70 kDa).
The mature form of 60 kDa is quantified by considering the band present in the myoblasts originating from a healthy subject to be 100%. The expression of GAA 60 kDa in the patient myoblasts corresponds to 1% of the GAA of a healthy subject and is not increased in the myoblasts treated with rhGAA. Conversely, the treatment with the rhGAA-M6Pn-α(1,2)-Man-Ethyloxyamino conjugate (28) increases the 60-70 kDa band to 47% of the GAA of a healthy subject. […] This activity is important for an application in the treatment of Pomp disease by enzyme therapy, but can also be applicable to all lysosomal diseases.

[3] = inhibition of CI-M6PR binding to adsorbed PMP, Table 1, read-out: IC50
[4] = competitive binding technique of example 2, Example 4 experiments, read-out: 50% inhibitory concentration (IC50), affinity for CI-M6PR

NCCO[C@H]1O[C@H](CO)[C@@H](O)[C@H](O)[C@@H]1O[C@H]1O[C@H](CCC(=O)O)[C@@H](O)[C@H](O)[C@@H]1O [Compound 24, aminoethyl 6,7-dideoxy-7-hydroxycarbonyl-α-D-manno-heptopyranosyl-(1→2)-α-D-mannopyranoside]
IC50 (CI-M6PR; [3]): 17 µM
Relative affinity (CI-M6PR): 5.8

O=C[C@@H](O)[C@@H](O)[C@H](O)[C@H](O)COP(=O)(O)O [Compound M6P, mannose 6-phosphate]
IC50 (CI-M6PR; [4]): 30 µM

NCCO[C@H]1OC(CCC(=O)O)[C@@H](O)[C@H](O)C1O (stereo partly drawn) [M6C-Ethyl-NH2]
IC50 (CI-M6PR; [3]): 99 µM
Relative affinity (CI-M6PR): 1

NCCO[C@H]1OC(CCP(=O)(O)O)[C@@H](O)[C@H](O)C1O (stereo partly drawn) [M6Pn-Ethyl-NH2]
IC50 (CI-M6PR; [3]): 29 µM
Relative affinity (CI-M6PR): 3.4

rhGAA-M6Pn-α(1,2)-Man-Ethyloxyamino (28): rhGAA functionalized on oligosaccharide chains with phosphonate disaccharide analog 28; conjugate of formula (III)
cell penetration of GAA measured through catalytic activity on 4-MUG [1]: significantly increases
mature form of GAA (60-70 kDa band), % of the GAA of a healthy subject [2]: 47%

rhGAA: recombinant human acid alpha-glucosidase produced in CHO cells, approximately 110 000 Da
IC50 (CI-M6PR; [4]): 0.3 µM
affinity for CI-M6PR, times lower than the rhGAA-M6Pn-α(1,2)-Man-Ethyloxyamino conjugate (28) (CI-M6PR; ratio of IC50 values): 5.5 times
mature form of GAA (60-70 kDa band), % of the GAA of a healthy subject [2]: not increased
